# Test results from patent US8632789B2, “System and method for delivery of DNA-binding chemotherapy drugs using nanoparticles” (Syracuse University, priority 2010, dated 2014).
# Test: Thermal denaturation (melting) of DNA-capped AuNP by UV-vis at 260 nm as a function of DOX loading
# Type: physicochemical
# Conditions: control studies, r=12; [DOX]=5.9 μM; [AuNP]=13.7 nM
# Experimental: To probe the uptake of DOX via intercalation to 1ab-AuNP, we investigated the thermal denaturation of the 1ab strands by measuring increase in extinction at 260 nm using UV-visible spectroscopy (UV-vis).
# We next utilized the 1ab- or 2ab-AuNP prepared above, with dsDNA-functionalization, for drug (DOX) loading. For each DOX binding and melting experiment, 1ab- or 2ab-AuNP were incubated for 40 min with DOX at specific ratios, r=[DOX]/[1ab/2ab]. In this study, we explored r=0-12, based on the number of 1ab per AuNP, as well as the number of binding sites at each 1ab. Next, each DOX-1ab-AuNP was analyzed via thermal denaturation melting experiments using temperature controlled UV-vis at Abs=260 nm and a heating rate of 1° C./min from 25° C. to 80° C. Each melting temperature was taken as the maximum of a peak-fitted first derivative plot of its corresponding melting curve (using PeakFit® Peak Separation and Analysis Software, V.4.12).
# UV-visible Absorption (UV-vis): The UV-vis measurements were collected on a Varian Cary100 Bio UV-vis spectrophotometer between 200-900 nm. The instrument is equipped with an 8-cell automated holder with high precision Peltier heating controller.
smiles,measurement,value
"COc1cccc2c1C(=O)c1c(O)c3c(c(O)c1C2=O)C[C@@](O)(C(=O)CO)C[C@@H]3O[C@H]1C[C@H](N)[C@H](O)[C@H](C)O1 [DOX, doxorubicin]",Cooperative melting in the temperature range of ~55-65° C.,not observed
